Measured values as given in patent publication US11236129B2, “IL-17A binding peptides and medical uses thereof” (Dompe' Farmaceutici S.P.A., priority 2018, dated 2022).
Residues, ends and D or L forms follow the SMILES beside them.

Target: IL-17RA/IL17RC dimerization induced by IL-17A (Homo sapiens, UniProt Q16552)
Test: IL-17RA/IL17RC dimerization assay in response to IL-17A (PathHunter Cytokine Receptor Assay)
Format: cell-based
Conditions: IL-17A at EC80; read-out: IC50 in IL-17RA/IL7RC dimerization assay
Method in brief: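 Receptor dimerization was read as chemiluminescence from complemented β-galactosidase after IL-17A at EC80 concentration for 6–16 h at 37 °C. Peptides were added 60 min before agonist, at 37 °C or room temperature, with 1% vehicle. Percent inhibition used the EC80-stimulated and vehicle wells as references.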

Sequence of IL-17RA/IL17RC dimerization induced by IL-17A (Q16552 24-155): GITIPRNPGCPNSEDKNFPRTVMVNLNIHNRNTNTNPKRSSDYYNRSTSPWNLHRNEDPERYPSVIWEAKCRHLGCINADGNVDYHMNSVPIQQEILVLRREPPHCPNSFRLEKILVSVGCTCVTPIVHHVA

Row | Structure (SMILES) | IC50 [µM]
1 | CC[C@H](C)[C@H](NC(C)=O)C(=O)N[C@@H](Cc1c[nH]cn1)C(=O)N[C@H](C(=O)N[C@H](C(=O)N[C@H](C(=O)N1CCC[C@H]1C(=O)N[C@@H](C)C(=O)N[C@@H](CC(=O)O)C(=O)N[C@@H](CC(C)C)C(=O)N[C@@H](Cc1c[nH]c2ccccc12)C(=O)N[C@@H](CC(=O)O)C(=O)N[C@@H](Cc1c[nH]cn1)C(=O)N[C@H](C(=O)N[C@@H](CC(N)=O)C(=O)N[C@@H](CCCCN)C(N)=O)[C@@H](C)CC)[C@@H](C)CC)[C@@H](C)O)C(C)C [SEQ ID NO: 209] (Ac-IHVTIPADLWDHINK-NH2) | < 10
2 | CC[C@H](C)[C@H](NC(C)=O)C(=O)N[C@@H](Cc1c[nH]cn1)C(=O)N[C@H](C(=O)N[C@H](C(=O)N[C@H](C(=O)N1CCC[C@H]1C(=O)N[C@@H](C)C(=O)N[C@@H](CC(=O)O)C(=O)N[C@@H](CC(C)C)C(=O)N[C@@H](Cc1c[nH]c2ccccc12)C(=O)N[C@@H](CC(=O)O)C(=O)N[C@@H](Cc1ccccc1)C(=O)N[C@H](C(=O)N[C@@H](CC(N)=O)C(=O)N[C@@H](CCCCN)C(N)=O)[C@@H](C)CC)[C@@H](C)CC)[C@@H](C)O)C(C)C [SEQ ID NO: 210] (Ac-IHVTIPADLWDFINK-NH2) | < 10
3 | CC[C@H](C)[C@H](NC(C)=O)C(=O)N[C@@H](Cc1c[nH]cn1)C(=O)N[C@H](C(=O)N[C@H](C(=O)N[C@H](C(=O)N1CCC[C@H]1C(=O)N[C@@H](C)C(=O)N[C@@H](CC(=O)O)C(=O)N[C@@H](CC(C)C)C(=O)N[C@@H](Cc1c[nH]c2ccccc12)C(=O)N[C@@H](CC(=O)O)C(=O)N[C@@H](Cc1ccc(O)cc1)C(=O)N[C@H](C(=O)N[C@@H](CC(N)=O)C(=O)N[C@@H](CCCCN)C(N)=O)[C@@H](C)CC)[C@@H](C)CC)[C@@H](C)O)C(C)C [SEQ ID NO: 211] (Ac-IHVTIPADLWDYINK-NH2) | < 10
4 | CC[C@H](C)[C@H](NC(C)=O)C(=O)N[C@@H](Cc1c[nH]cn1)C(=O)N[C@H](C(=O)N[C@H](C(=O)N[C@H](C(=O)N1CCC[C@H]1C(=O)N[C@@H](C)C(=O)N[C@@H](CC(=O)O)C(=O)N[C@@H](CC(C)C)C(=O)N[C@@H](Cc1c[nH]c2ccccc12)C(=O)N[C@@H](CC(=O)O)C(=O)N[C@@H](Cc1c[nH]c2ccccc12)C(=O)N[C@@H](CCC(=O)O)C(=O)N[C@@H](CC(N)=O)C(=O)N[C@@H](CCCCN)C(N)=O)[C@@H](C)CC)[C@@H](C)O)C(C)C [SEQ ID NO: 212] (Ac-IHVTIPADLWDWENK-NH2) | < 10
5 | CC[C@H](C)[C@H](NC(C)=O)C(=O)N[C@@H](Cc1c[nH]cn1)C(=O)N[C@H](C(=O)N[C@H](C(=O)N[C@H](C(=O)N1CCC[C@H]1C(=O)N[C@@H](C)C(=O)N[C@@H](CC(=O)O)C(=O)N[C@@H](CC(C)C)C(=O)N[C@@H](Cc1c[nH]c2ccccc12)C(=O)N[C@@H](CC(=O)O)C(=O)N[C@@H](Cc1c[nH]c2ccccc12)C(=O)N[C@@H](CCCCN)C(=O)N[C@@H](CC(N)=O)C(=O)N[C@@H](CCCCN)C(N)=O)[C@@H](C)CC)[C@@H](C)O)C(C)C [SEQ ID NO: 213] (Ac-IHVTIPADLWDWKNK-NH2) | < 10
6 | CC[C@H](C)[C@H](NC(C)=O)C(=O)N[C@@H](Cc1c[nH]cn1)C(=O)N[C@H](C(=O)N[C@H](C(=O)N[C@H](C(=O)N1CCC[C@H]1C(=O)N[C@@H](C)C(=O)N[C@@H](CC(=O)O)C(=O)N[C@@H](CC(C)C)C(=O)N[C@@H](Cc1c[nH]c2ccccc12)C(=O)N[C@@H](CC(=O)O)C(=O)N[C@@H](Cc1c[nH]c2ccccc12)C(=O)N[C@@H](C)C(=O)N[C@@H](CC(N)=O)C(=O)N[C@@H](CCCCN)C(N)=O)[C@@H](C)CC)[C@@H](C)O)C(C)C [SEQ ID NO: 214] (Ac-IHVTIPADLWDWANK-NH2) | < 10
7 | CC[C@H](C)[C@H](NC(C)=O)C(=O)N[C@@H](Cc1c[nH]cn1)C(=O)N[C@H](C(=O)N[C@H](C(=O)N[C@H](C(=O)N1CCC[C@H]1C(=O)N[C@@H](C)C(=O)N[C@@H](CC(=O)O)C(=O)N[C@@H](CC(C)C)C(=O)N[C@@H](Cc1c[nH]c2ccccc12)C(=O)N[C@@H](CC(=O)O)C(=O)N[C@@H](Cc1c[nH]c2ccccc12)C(=O)NCC(=O)N[C@@H](CC(N)=O)C(=O)N[C@@H](CCCCN)C(N)=O)[C@@H](C)CC)[C@@H](C)O)C(C)C [SEQ ID NO: 215] (Ac-IHVTIPADLWDWGNK-NH2) | < 10
8 | CC[C@H](C)[C@H](NC(C)=O)C(=O)N[C@@H](Cc1c[nH]cn1)C(=O)N[C@H](C(=O)N[C@H](C(=O)N[C@H](C(=O)N1CCC[C@H]1C(=O)N[C@@H](C)C(=O)N[C@@H](CC(=O)O)C(=O)N[C@@H](CC(C)C)C(=O)N[C@@H](Cc1c[nH]c2ccccc12)C(=O)N[C@@H](CC(=O)O)C(=O)N[C@@H](Cc1c[nH]c2ccccc12)C(=O)N[C@@H](CC(C)C)C(=O)N[C@@H](CC(N)=O)C(=O)N[C@@H](CCCCN)C(N)=O)[C@@H](C)CC)[C@@H](C)O)C(C)C [SEQ ID NO: 216] (Ac-IHVTIPADLWDWLNK-NH2) | < 10
9 | CC[C@H](C)[C@H](NC(C)=O)C(=O)N[C@@H](Cc1c[nH]cn1)C(=O)N[C@H](C(=O)N[C@H](C(=O)N[C@H](C(=O)N1CCC[C@H]1C(=O)N[C@@H](C)C(=O)N[C@@H](CC(=O)O)C(=O)N[C@@H](CC(C)C)C(=O)N[C@@H](Cc1c[nH]c2ccccc12)C(=O)N[C@@H](CC(=O)O)C(=O)N[C@@H](Cc1c[nH]c2ccccc12)C(=O)N1CCC[C@H]1C(=O)N[C@@H](CC(N)=O)C(=O)N[C@@H](CCCCN)C(N)=O)[C@@H](C)CC)[C@@H](C)O)C(C)C [SEQ ID NO: 217] (Ac-IHVTIPADLWDWPNK-NH2) | < 10
10 | CC[C@H](C)[C@H](NC(C)=O)C(=O)N[C@@H](Cc1c[nH]cn1)C(=O)N[C@H](C(=O)N[C@H](C(=O)N[C@H](C(=O)N1CCC[C@H]1C(=O)N[C@@H](C)C(=O)N[C@@H](CC(=O)O)C(=O)N[C@@H](CC(C)C)C(=O)N[C@@H](Cc1c[nH]c2ccccc12)C(=O)N[C@@H](CC(=O)O)C(=O)N[C@@H](Cc1c[nH]c2ccccc12)C(=O)N[C@@H](Cc1ccccc1)C(=O)N[C@@H](CC(N)=O)C(=O)N[C@@H](CCCCN)C(N)=O)[C@@H](C)CC)[C@@H](C)O)C(C)C [SEQ ID NO: 218] (Ac-IHVTIPADLWDWFNK-NH2) | < 10
11 | CC[C@H](C)[C@H](NC(C)=O)C(=O)N[C@@H](Cc1c[nH]cn1)C(=O)N[C@H](C(=O)N[C@H](C(=O)N[C@H](C(=O)N1CCC[C@H]1C(=O)N[C@@H](C)C(=O)N[C@@H](CC(=O)O)C(=O)N[C@@H](CC(C)C)C(=O)N[C@@H](Cc1c[nH]c2ccccc12)C(=O)N[C@@H](CC(=O)O)C(=O)N[C@@H](Cc1c[nH]c2ccccc12)C(=O)N[C@@H](Cc1ccc(O)cc1)C(=O)N[C@@H](CC(N)=O)C(=O)N[C@@H](CCCCN)C(N)=O)[C@@H](C)CC)[C@@H](C)O)C(C)C [SEQ ID NO: 219] (Ac-IHVTIPADLWDWYNK-NH2) | < 10
12 | CC[C@H](C)[C@H](NC(C)=O)C(=O)N[C@@H](Cc1c[nH]cn1)C(=O)N[C@H](C(=O)N[C@H](C(=O)N[C@H](C(=O)N1CCC[C@H]1C(=O)N[C@@H](C)C(=O)N[C@@H](CC(=O)O)C(=O)N[C@@H](CC(C)C)C(=O)N[C@@H](Cc1c[nH]c2ccccc12)C(=O)N[C@@H](CC(=O)O)C(=O)N[C@@H](Cc1c[nH]c2ccccc12)C(=O)N[C@H](C(=O)N[C@@H](CCC(N)=O)C(=O)N[C@@H](CCCCN)C(N)=O)[C@@H](C)CC)[C@@H](C)CC)[C@@H](C)O)C(C)C [SEQ ID NO: 220] (Ac-IHVTIPADLWDWIQK-NH2) | < 10
13 | CC[C@H](C)[C@H](NC(C)=O)C(=O)N[C@@H](Cc1c[nH]cn1)C(=O)N[C@H](C(=O)N[C@H](C(=O)N[C@H](C(=O)N1CCC[C@H]1C(=O)N[C@@H](C)C(=O)N[C@@H](CC(=O)O)C(=O)N[C@@H](CC(C)C)C(=O)N[C@@H](Cc1c[nH]c2ccccc12)C(=O)N[C@@H](CC(=O)O)C(=O)N[C@@H](Cc1c[nH]c2ccccc12)C(=O)N[C@H](C(=O)N[C@@H](CC(=O)O)C(=O)N[C@@H](CCCCN)C(N)=O)[C@@H](C)CC)[C@@H](C)CC)[C@@H](C)O)C(C)C [SEQ ID NO: 221] (Ac-IHVTIPADLWDWIDK-NH2) | < 10
14 | CC[C@H](C)[C@H](NC(C)=O)C(=O)N[C@@H](Cc1c[nH]cn1)C(=O)N[C@H](C(=O)N[C@H](C(=O)N[C@H](C(=O)N1CCC[C@H]1C(=O)N[C@@H](C)C(=O)N[C@@H](CC(=O)O)C(=O)N[C@@H](CC(C)C)C(=O)N[C@@H](Cc1c[nH]c2ccccc12)C(=O)N[C@@H](CC(=O)O)C(=O)N[C@@H](Cc1c[nH]c2ccccc12)C(=O)N[C@H](C(=O)N[C@@H](CC(N)=O)C(=O)N[C@@H](Cc1c[nH]cn1)C(N)=O)[C@@H](C)CC)[C@@H](C)CC)[C@@H](C)O)C(C)C [SEQ ID NO: 222] (Ac-IHVTIPADLWDWINH-NH2) | < 10
15 | CC[C@H](C)[C@H](NC(C)=O)C(=O)N[C@@H](Cc1c[nH]cn1)C(=O)N[C@H](C(=O)N[C@H](C(=O)N[C@H](C(=O)N1CCC[C@H]1C(=O)N[C@@H](C)C(=O)N[C@@H](CC(=O)O)C(=O)N[C@@H](CC(C)C)C(=O)N[C@@H](Cc1c[nH]c2ccccc12)C(=O)N[C@@H](CC(=O)O)C(=O)N[C@@H](Cc1c[nH]c2ccccc12)C(=O)N[C@H](C(=O)N[C@@H](CC(N)=O)C(=O)N[C@@H](CC(=O)O)C(N)=O)[C@@H](C)CC)[C@@H](C)CC)[C@@H](C)O)C(C)C [SEQ ID NO: 223] (Ac-IHVTIPADLWDWIND-NH2) | < 10
16 | CC(=O)N[C@H](C(=O)N[C@@H](Cc1c[nH]cn1)C(=O)N[C@H](C(=O)N[C@H](C(=O)N[C@H](C(=O)N1CCC[C@H]1C(=O)N[C@@H](CCC(N)=O)C(=O)N[C@@H](CCC(=O)O)C(=O)N[C@@H](CC(C)C)C(=O)N[C@@H](Cc1c[nH]c2ccccc12)C(=O)N[C@@H](CCC(=O)O)C(=O)N[C@@H](Cc1c[nH]c2ccccc12)C(=O)N[C@H](C(=O)N[C@@H](CCCNC(=N)N)C(=O)N[C@@H](CCCNC(=N)N)C(N)=O)C(C)C)C(C)C)[C@@H](C)O)C(C)C)C(C)C [SEQ ID NO: 224] (Ac-VHVTVPQELWEWVRR-NH2) | < 10
